Results from PMC6072100, “Exploring the links between peptoid antibacterial activity and toxicity” (MedChemComm, 2017).
Square brackets hold non-standard residues; d marks the D form. Peptide text beside a SMILES is read from it. Gly(N-(CH2)6NH2) = NCCCCCCNCC(=O)O; Gly(N-2-aminoethyl) = NCCNCC(=O)O; Nspe = C[C@H](NCC(=O)O)c1ccccc1; Nphe = O=C(O)CNCc1ccccc1; Nlys = NCCCCNCC(=O)O

What was measured:
[1] = Cytotoxicity assay with HepG2 (alamarBlue); assay type: cell-based, human; details: human, HepG2 cells
Protocol: (§1) The activity of our peptoid library was assessed against both bacterial and mammalian cells to gain a broader understanding of the factors that lead to effective and selective antimicrobial peptoids. We screened for broad-spectrum antibacterial activity against Gram-negative (Escherichia coli and Pseudomonas aeruginosa) and Gram-positive (Staphylococcus aureus and S. epidermidis) bacteria. The toxicity of the library was also assessed against two mammalian cell lines; HaCaT spontaneously transformed aneuploid keratinocytes were employed to model toxicity against human skin cells and HepG2, a cell line derived from a human liver carcinoma, were used as a study on polarised human hepatocytes. Detailed methods for these assays can be found in the ESI. ^‡ […]
(§2) Please note – ED50, the median effective dose, was defined as the dose that kills 50% of cells.
(§3) Cytotoxicity analyses were performed in 96-well plates (Costar, Fisher Scientific) using alamarBlue® (Invitrogen) for cell viability detection using a modified protocol as described previously. HepG2 or HaCaT cells were subcultured at 37 °C, 5% CO2 in DMEM high glucose supplemented with heat-inactivated foetal bovine sera (FBS, 10%; Biosera Ltd) and penicillin/streptomycin (P/S, 1%). Cells were counted using a Neubauer Improved Haemocytometer. HepG2 cells were seeded 1 day prior to treatment in 96 well plates at a concentration of 2 × 10^5 cells per mL in 100 μL of medium (2 × 10^4 cells per well). Then cells were pre-incubated with the compounds in triplicate in a dilution series in triplicate from 2–100 μM (5 mM stock solutions in DMSO diluted from 100 μM to 3 μM; untreated cells with DMSO as a negative control) in 50 μl of the media for 1 hour. Afterwards, 40 μL were removed from each well before the addition of 90 μL of the media, followed by incubation for 24 hours at 37 °C, 5% CO2. Then, 10 μL of alamarBlue® (Invitrogen) was added to each well before a 2 hour incubation prior to assessing cell viability using a fluorescent plate reader (Biotek; Ex 560 nm/Em 600 nm). All data were measured in triplicate on a minimum of two occasions to ensure a robust data set was collected. The ED50 values were calculated from the dose response results achieved from the serial dilutions.
Cytotoxicity assay with HepG2
Cytotoxicity analyses were performed in 96-well plates (Costar, Fisher Scientific) using alamarBlue® (Invitrogen) for cell viability detection using a modified protocol as previously described. The HepG2 cells were grown at 37 °C, 5% CO2 in DMEM high glucose supplemented with heat-inactivated foetal bovine sera (FBS, 10%; Biosera Ltd) and penicillin/streptomycin (P/S, 1%). Cells were counted using a Neubauer Improved Haemocytometer. HepG2 cells were seeded 1 day prior to treatment in 96 well plates at a concentration of 2x10^5 cells/mL in 100 µL of medium (2x10^4 cells/well). Then cells were pre-incubated with the compounds in triplicate (5 mM stock solutions in DMSO diluted from 100 µM to 3 µM; untreated cells with DMSO as a negative control) in 50 µl of the media for 1 hour.
Afterwards, 40 µL were removed from each well before the addition of 90 µL of the media, followed by incubation for 24 hours at 37 °C, 5% CO2. Then, 10 µL of alamarBlue® (Invitrogen) was added to each well before a 2 hour incubation prior to assessing cell viability using a fluorescent plate reader (Biotek; Ex 560 nm / Em 600 nm). All data was measured in triplicate on a minimum of two occasions to ensure a robust data set was collected. The ED50 values were calculated from the dose response results achieved from the serial dilutions. […]
5% CO2 in DMEM high glucose supplemented with heat-inactivated foetal bovine sera (FBS, 10%; Biosera Ltd) and penicillin/streptomycin (P/S, 1%). Cells were counted using a Neubauer […]
Empty wells were filled with 100 µL PBS. After 24 hours, cells were incubated with the compounds in a dilution series in triplicate from 2 – 100 µM (5 mM stock solutions in DMSO […]

[2] = Skin cell toxicity assay with HaCaT (alamarBlue); assay type: cell-based, human; details: human, HaCaT cells (keratinocytes)
Protocol: as §1, §2
as §3, with “dilutions. […]” for “dilutions.”
Cells were counted using a Neubauer Improved
Haemocytometer. […]
µM to 3 µM; untreated cells with DMSO as a negative control) in 50 µl of the media for 1 hour.
Afterwards, 40 µL were removed from each well before the addition of 90 µL of the media, followed by incubation for 24 hours at 37 °C, 5% CO2. Then, 10 µL of alamarBlue® (Invitrogen) was added to each well before a 2 hour incubation prior to assessing cell viability using a fluorescent plate reader (Biotek; Ex 560 nm / Em 600 nm). All data was measured in triplicate on a minimum of two occasions to ensure a robust data set was collected. The ED50 values were calculated from the dose response results achieved from the serial dilutions.
Skin Cell Toxicity assay with HaCaT […]
alamarBlue® (Invitrogen) for cell viability detection. HaCaT cells were subcultured at 37 °C, 5% CO2 in DMEM high glucose supplemented with heat-inactivated foetal bovine sera (FBS, 10%; Biosera Ltd) and penicillin/streptomycin (P/S, 1%). Cells were counted using a Neubauer Improved Haemocytometer. HaCaT cells were seeded in the plates 24 hours prior to treatment in 96 well plates at a concentration of 2x10^5 cells/mL in 100 µL of medium (2x10^4 cells/well).
Empty wells were filled with 100 µL PBS. After 24 hours, cells were incubated with the compounds in a dilution series in triplicate from 2 – 100 µM (5 mM stock solutions in DMSO diluted from 100 µM to 3 µM; Amphotericin B was used as a positive control and untreated cells with DMSO as a negative control) in 50 µL of the media for 1 hour. Afterwards, 40 µl was removed from each well, 90 µL of medium was added to each well and the cells incubated for 24 hours at 37 °C, 5% CO2. 10 µL of alamarBlue® (Invitrogen) was added to each well before […]

Structure (SMILES) | CC50 at 24 h ([1]; ED50 HepG2) [µM] | CC50 at 24 h ([2]; ED50 HaCaT) [µM] | CC50 at 24 h ([1]; dose that kills 50% of cells, 2–100 μM, 1 h with compound then 24 h, alamarBlue, read-out: ED50 HepG2) [µM] | CC50 at 24 h ([2]; dose that kills 50% of cells, 2–100 μM, 1 h with compound then 24 h, alamarBlue, read-out: ED50 HaCaT) [µM]
NCCNCC(=O)N(CC(=O)N(CC(=O)N(CCN)CC(=O)N(CC(=O)N(CC(=O)N(CCN)CC(=O)N(CC(=O)N(CC(N)=O)Cc1ccccc1)Cc1ccccc1)Cc1ccccc1)Cc1ccccc1)Cc1ccccc1)Cc1ccccc1 [Peptoid 8, (NaeNpheNphe)3] (H-[Gly(N-2-aminoethyl)][Nphe][Nphe][Gly(N-2-aminoethyl)][Nphe][Nphe][Gly(N-2-aminoethyl)][Nphe][Nphe]-NH2) | 100 | 100 |  | 
NCCCCNCC(=O)N(CC(=O)N(CC(=O)N(CCCCN)CC(=O)N(CC(=O)N(CC(=O)N(CCCCN)CC(=O)N(CC(=O)N(CC(N)=O)Cc1cccc(F)c1)Cc1cccc(F)c1)Cc1cccc(F)c1)Cc1cccc(F)c1)Cc1cccc(F)c1)Cc1cccc(F)c1 [Peptoid 25, (NLysNmfbNmfb)3] | 43 | 64 |  | 
NCCCCCCNCC(=O)N(CC(=O)N(CC(=O)N(CCCCCCN)CC(=O)N(CC(=O)N(CC(=O)N(CCCCCCN)CC(=O)N(CC(=O)N(CC(=O)N(CCCCCCN)CC(=O)N(CC(=O)N(CC(N)=O)Cc1ccccc1)Cc1ccccc1)Cc1ccccc1)Cc1ccccc1)Cc1ccccc1)Cc1ccccc1)Cc1ccccc1)Cc1ccccc1 [Peptoid 1, (NahNpheNphe)4] (H-[Gly(N-(CH2)6NH2)][Nphe][Nphe][Gly(N-(CH2)6NH2)][Nphe][Nphe][Gly(N-(CH2)6NH2)][Nphe][Nphe][Gly(N-(CH2)6NH2)][Nphe][Nphe]-NH2) | 100 | 100 |  | 
C[C@@H](c1ccccc1)N(CC(N)=O)C(=O)CN(Cc1ccc(F)cc1)C(=O)CN(CCCCN)C(=O)CN(C(=O)CN(Cc1ccc(F)cc1)C(=O)CN(CCCCN)C(=O)CN(C(=O)CN(Cc1ccc(F)cc1)C(=O)CN(CCCCN)C(=O)CN(C(=O)CN(Cc1ccc(F)cc1)C(=O)CNCCCCN)[C@@H](C)c1ccccc1)[C@@H](C)c1ccccc1)[C@@H](C)c1ccccc1 [Peptoid 26, (NLysNpfbNspe)4] | 26 | 20 |  | 
COc1ccc(CN(CC(N)=O)C(=O)CN(Cc2ccc(OC)cc2)C(=O)CN(CCCCN)C(=O)CN(Cc2ccc(OC)cc2)C(=O)CN(Cc2ccc(OC)cc2)C(=O)CN(CCCCN)C(=O)CN(Cc2ccc(OC)cc2)C(=O)CN(Cc2ccc(OC)cc2)C(=O)CN(CCCCN)C(=O)CN(Cc2ccc(OC)cc2)C(=O)CN(Cc2ccc(OC)cc2)C(=O)CNCCCCN)cc1 [Peptoid 19, (NLysNpmbNpmb)4] | 100 | 41 |  | 
NCCNCC(=O)N(CC(=O)N(CC(=O)N(CCN)CC(=O)N(CC(=O)N(CC(=O)N(CCN)CC(=O)N(CC(=O)N(CC(=O)N(CCN)CC(=O)N(CC(=O)N(CC(N)=O)Cc1ccccc1)Cc1ccccc1)Cc1ccccc1)Cc1ccccc1)Cc1ccccc1)Cc1ccccc1)Cc1ccccc1)Cc1ccccc1 [Peptoid 7, (NaeNpheNphe)4] (H-[Gly(N-2-aminoethyl)][Nphe][Nphe][Gly(N-2-aminoethyl)][Nphe][Nphe][Gly(N-2-aminoethyl)][Nphe][Nphe][Gly(N-2-aminoethyl)][Nphe][Nphe]-NH2) | 100 | 100 |  | 
NCCCCNCC(=O)N(CC(=O)N(CC(=O)N(CCCCN)CC(=O)N(CC(=O)N(CC(=O)N(CCCCN)CC(=O)N(CC(=O)N(CC(=O)N(CCCCN)CC(=O)N(CC(=O)N(CC(N)=O)Cc1cccc(F)c1)Cc1cccc(F)c1)Cc1cccc(F)c1)Cc1cccc(F)c1)Cc1cccc(F)c1)Cc1cccc(F)c1)Cc1cccc(F)c1)Cc1cccc(F)c1 [Peptoid 24, (NLysNmfbNmfb)4] | 17 | 25 |  | 
NCCCCNCC(=O)N(CC(=O)N(CC(=O)N(CCCCN)CC(=O)N(CC(=O)N(CC(=O)N(CCCCN)CC(=O)N(CC(=O)N(CC(N)=O)Cc1ccccc1)Cc1ccccc1)Cc1ccccc1)Cc1ccccc1)Cc1ccccc1)Cc1ccccc1 [Peptoid 5, (NLysNpheNphe)3] | 100 | 100 |  | 
NCCNCC(=O)N(CC(=O)N(CC(=O)N(CCN)CC(=O)N(CC(=O)N(CC(N)=O)Cc1ccccc1)Cc1ccccc1)Cc1ccccc1)Cc1ccccc1 [Peptoid 9, (NaeNpheNphe)2] (H-[Gly(N-2-aminoethyl)][Nphe][Nphe][Gly(N-2-aminoethyl)][Nphe][Nphe]-NH2) | 100 | 100 |  | 
C[C@@H](c1ccccc1)N(CC(N)=O)C(=O)CN(C(=O)CN(CCCCCCN)C(=O)CN(C(=O)CN(C(=O)CNCCCCCCN)[C@@H](C)c1ccccc1)[C@@H](C)c1ccccc1)[C@@H](C)c1ccccc1 [Peptoid 12, (NahNspeNspe)2] | 100 | 100 |  | 
C[C@@H](c1ccccc1)N(CC(N)=O)C(=O)CN(C(=O)CN(CCCCN)C(=O)CN(C(=O)CN(C(=O)CN(CCCCN)C(=O)CN(C(=O)CN(C(=O)CN(CCCCN)C(=O)CN(C(=O)CN(C(=O)CNCCCCN)[C@@H](C)c1ccccc1)[C@@H](C)c1ccccc1)[C@@H](C)c1ccccc1)[C@@H](C)c1ccccc1)[C@@H](C)c1ccccc1)[C@@H](C)c1ccccc1)[C@@H](C)c1ccccc1 [Peptoid 13, (NLysNspeNspe)4] (H-[Nlys][Nspe][Nspe][Nlys][Nspe][Nspe][Nlys][Nspe][Nspe][Nlys][Nspe][Nspe]-NH2) |  |  | 29 | 20
